# Data as given in patent US12297179B2, “Crystalline and salt forms of an organic compound and pharmaceutical compositions thereof” (Servier Pharmaceuticals LLC, priority 2018, dated 2025).
# Counter-ions that a name gives are not always drawn. Marks after values point to notes of the source that are not given here.
# Tests used:
# [1] = Sprague Dawley, rat, in vivo, po, 100 mg/kg
# Method: The objective of the pharmacokinetic (PK) studies was to determine the pharmacokinetics of the different forms of Compound 1 in intact Sprague Dawley rats after oral (PO) administration. […] Food and water were available to all animals ad libitum and Compound 1 or Tris salt Form C of Compound was dosed orally at 100 mg/kg (100 mL/kg). Approximately 110 μL of whole blood was collected via tail vein bleeding predose and at 0.083, 0.25, 0.5, 1, 2, 4, 8, 12 and 24 hours postdose into tubes containing the anticoagulant K2EDTA, processed to obtain plasma, and stored at approximately −70° C. until analysis. Concentrations of the active pharmaceutical ingredient in plasma samples were quantified using a nonvalidated liquid chromatography with tandem mass spectrometry (LC-MS/MS) method. Pharmacokinetic analysis of the individual plasma concentration data was performed using WinNonlin© (Version 6.4; Pharsight Corporation, Mountain View, CA, USA). Pharmacokinetic parameters were estimated using a noncompartmental extravascular models method. Area under the concentration-time curve (AUC) was calculated using the linear trapezoidal rule. […] Concentrations that were <80% of the LLOQ were designated as BLQ.
# [2] = Hygroscopicity by dynamic vapor sorption (DVS); format: physicochemical
# Method: DVS was measured via a SMS (Surface Measurement Systems) DVS Intrinsic. The relative humidity at 25° C. was calibrated against deliquescence point of LiCl, Mg(NO3)2 and KCl.
# [3] = Kinetic solubility in bio-relevant media (SGF/FaSSGF, FaSSIF, FeSSIF) and H2O at 37° C., with pH of supernatant; format: physicochemical; conditions: for solubility at 15 min / solubility at 30 min / solubility at 1 h / solubility at 2 h / solubility at 24 h: 37 °C, thermodynamic from solid; for Solubility: 37° C.
# Method: (§1) Weigh 100 mg of sodium chloride into a 50-mL volumetric flask. Add appropriate volume of purified water and sonicate until all solids are completely dissolved. Add sufficient purified water closely to the target volume and adjust to pH 1.6. Weigh 3 mg of FaSSIF/FeSSIF/FaSSGF powder into the volumetric flask and sonicate until the powder is completely dissolved. Dilute to target volume with purified water and mix well.
# as §1, with “0.170 g of monobasic sodium phosphate, 0.021 g of sodium hydroxide and 0.31 g” for “100 mg”, “6.5.” for “1.6.”, “110” for “3”
# as §1, with “0.41 mL of glacial acetic acid, 0.202 g of sodium hydroxide and 0.594 g” for “100 mg”, “5.0.” for “1.6.”, “560” for “3”
# An Agilent 1260 HPLC with DAD detector was utilized and detailed chromatographic conditions for solubility analysis are listed in Table 5.
# Kinetic solubility of Tris salt Form A and free acid Form D were measured in three bio-relevant media (SGF, FaSSIF and FeSSIF) at 37° C. In details, ˜30 mg solids were suspended into 4.0 mL of each medium initially and equilibrated via shaking (500 rpm) at 37° C. Approximately 0.8 mL suspension was extracted at each time point of 15/30/60/120 mins and 24 hrs. The supernatant and precipitate were separated by centrifugation (10000 rpm, ˜3 mins) followed by concentration (HPLC) and pH measurement for supernatant and the corresponding solid forms were characterized by XRPD.
# Due to the thermodynamic stability of Tris salt Form C, further evaluation was conducted, including kinetic solubility in three bio-relevant media (FaSSGF/FaSSF/FeSSIF) and H2O at 37° C.
# [4] = Thermodynamic stability: slurry competition between Tris salt Forms A and C; format: physicochemical; conditions: DMSO/EtOH (1:8, v/v) and EtOH, 5° C./RT/50° C./75° C., 7 days
# Method: The thermodynamic stability relationship between Tris salt Forms A and C was investigated via slurry competition experiments in 2 process related solvent systems, DMSO/EtOH (1:8, v/v) and EtOH at 4 temperature conditions (5° C./RT/50° C./75° C.). Two stages of slurry competition experiments were conducted, of which the first stage included temperature as a variable and the second stage used newly opened reagents to minimize the effect of absorbed moisture. Typical experimental procedures are described below.
# About 5-10 mg of crystalline Tris salt Form C was first dissolved in ˜1.0 mL of corresponding solvent to form nearly saturated solution under corresponding temperature (equilibrating method: stirring magnetically, ˜1000 rpm, ˜2 hrs). Then ˜15 mg of each form (crystalline Tris salt Forms A and C) was physically mixed, followed by addition of the nearly saturated solution to form a suspension. The suspensions were then stirred (˜1000 rpm) under corresponding temperature for 7 days (a small amount of solids were sampled at 2 day point in the second stage experiments). The obtained solids were isolated via centrifugation (10000 rpm, 2 mins) and tested by XRPD to confirm the form.
smiles,measurement,setting,value
"Cc1ccccc1-c1ccc(-c2cc(C(=O)O)c3c(c2)nnn3C)cc1 [Tris salt, 1-methyl-5-(2′-methyl-[1,1′-biphenyl]-yl)-1H-benzo[d][1,2,3]triazole-7-carboxylate Tris salt]","Cmax, fold higher than best free acid batch Lot B",[1],~1.5 fold
same,"Tmax, fold lower than best free acid batch Lot B",[1],~2 fold
Cc1ccccc1-c1ccc(-c2cc(C(=O)O)c3c(c2)nnn3C)cc1 [Tris salt Form C],solid form after the DVS test (XRPD),[2]; 25° C.,remained as Tris salt Form C
same,moisture uptake,"[2]; DVS, humidity varied from 0% RH to 80% RH at 25° C.",~0.04 wt %
same,solubility at 15 min,"[3]; FaSSIF, pH 6.5, fassif, Table 12, FaSSIF, 15 min",390 µg/mL
same,solubility at 30 min,"[3]; FaSSIF, pH 6.5, fassif, Table 12, FaSSIF, 30 min",320 µg/mL
same,solubility at 1 h,"[3]; FaSSIF, pH 6.5, fassif, Table 12, FaSSIF, 1 h",250 µg/mL
same,solubility at 2 h,"[3]; FaSSIF, pH 6.5, fassif, Table 12, FaSSIF, 2 h",220 µg/mL
same,solubility at 24 h,"[3]; FaSSIF, pH 6.5, fassif, Table 12, FaSSIF, 24 h",170 µg/mL
same,solubility at 15 min,"[3]; FeSSIF, pH 5, fessif, Table 12, FeSSIF, 15 min",330 µg/mL
same,solubility at 30 min,"[3]; FeSSIF, pH 5, fessif, Table 12, FeSSIF, 30 min",270 µg/mL
same,solubility at 1 h,"[3]; FeSSIF, pH 5, fessif, Table 12, FeSSIF, 1 h",50 µg/mL
same,solubility at 2 h,"[3]; FeSSIF, pH 5, fessif, Table 12, FeSSIF, 2 h",40 µg/mL
same,solubility at 24 h,"[3]; FeSSIF, pH 5, fessif, Table 12, FeSSIF, 24 h",40 µg/mL
same,Solubility,"[3]; Table 12, FaSSGF, 15 min",<LOD
same,Solubility,"[3]; Table 12, FaSSGF, 30 min",<LOD
same,Solubility,"[3]; Table 12, FaSSGF, 1 h",<LOD
same,Solubility,"[3]; Table 12, FaSSGF, 2 h",<LOD
same,Solubility,"[3]; Table 12, FaSSGF, 24 h",<LOD
same,pH,"[3]; Table 12, FaSSGF, 15 min",3.0
same,pH,"[3]; Table 12, FaSSGF, 30 min",3.1
same,pH,"[3]; Table 12, FaSSGF, 1 h",4.0
same,pH,"[3]; Table 12, FaSSGF, 2 h",4.1
same,pH,"[3]; Table 12, FaSSGF, 24 h",3.1
same,pH,"[3]; Table 12, FaSSIF, 15 min",7.7
same,pH,"[3]; Table 12, FaSSIF, 30 min",7.8
same,pH,"[3]; Table 12, FaSSIF, 1 h",7.8
same,pH,"[3]; Table 12, FaSSIF, 2 h",7.8
same,pH,"[3]; Table 12, FaSSIF, 24 h",7.9
same,pH,"[3]; Table 12, FeSSIF, 15 min",5.5*
same,pH,"[3]; Table 12, FeSSIF, 30 min",5.6*
same,pH,"[3]; Table 12, FeSSIF, 1 h",5.6
same,pH,"[3]; Table 12, FeSSIF, 2 h",5.6
same,pH,"[3]; Table 12, FeSSIF, 24 h",5.6
same,pH,"[3]; Table 12, H2O, 15 min",8.9
same,pH,"[3]; Table 12, H2O, 30 min",9.0
same,pH,"[3]; Table 12, H2O, 1 h",9.0
same,pH,"[3]; Table 12, H2O, 2 h",9.0
same,pH,"[3]; Table 12, H2O, 24 h",9.2
same,solubility at 15 min,"[3]; water, Table 12, H2O, 15 min",810 µg/mL
same,solubility at 30 min,"[3]; water, Table 12, H2O, 30 min",820 µg/mL
same,solubility at 1 h,"[3]; water, Table 12, H2O, 1 h",720 µg/mL
same,solubility at 2 h,"[3]; water, Table 12, H2O, 2 h",750 µg/mL
same,solubility at 24 h,"[3]; water, Table 12, H2O, 24 h",400 µg/mL
same,"form after slurry competition (XRPD), thermodynamic stability",[4],thermodynamically more stable
